Experimental data from US5691361A, “1,4-dihydropyridine derivatives, a process for their preparation and their use for influencing the blood flow” (priority 1995, dated 1997).

What was measured:
[1] = tested on: left stimulated rabbit atrium / rabbit aorta; test: Tissue selectivity: ratio of IC50 in left stimulated isolated rabbit atrium to IC50 in K+-depolarized rabbit aorta; type: cell-based; conditions: ratio of IC50 in left stimulated rabbit atrium and IC50 in rabbit aorta
Experimental: (§1) The vasodilatory effects are tested as follows: an isolated aorta of the thorax of white New Zealand rabbits is secured in an organ bath. The contractile activity of the helical throacic aorta strip is recorded after depolarization with Krebs solution without calcium (35 mM, potassium) and addition of external calcium pulses (1.5 mM). The compounds are added in increasing concentrations before calcium is reintroduced.
The electrical stimulation is fixed at 1 Hz. After one hour equilibration the percentage contraction is set at 100%, increased concentrations of the compounds are added to the bath every 15 minutes and the changes in the contractile force are recorded. The IC50 values are calculated by interpolation from the concentration-effect relationship determined in each of the experiments.

[2] = tested on: spontaneously hypertensive rats (SHR); test: Antihypertensive activity in spontaneously hypertensive rats (systolic blood pressure, tail plethysmography); type: in vivo, spontaneously hypertensive rats (SHR) of Okamoto strain; conditions: Rattus norvegicus, single oral dose 20 mg/kg, 2 hours after treatment
Experimental: The antihypertensive activity of the compounds of the invention is tested in spontaneously hypertensive rats (SHR) of Okamoto strain. Systolic blood pressure is monitored by tail plethysmography. The animals are trained for two weeks for the monitoring process. On the day of the experiment the rats are placed in an oven for two hours at 31°±1° C. and blood pressure is recorded graphically. The measurement recorded is the average of five measurements taken in each case. Only animals with basic values of systolic blood pressure over 170 mm Hg are considered hypertensive. After 24 hours fasting the compound to be tested (20 mg/kg) and/or a carrier (20% PEG 400 in 0.5% aqueous methyl cellulose (10 ml/kg)) is orally administered to the selected hypertensive animals by means of a gastric cannula. The values are expressed in percentage variation 2 hours after treatment.

[3] = tested on: rabbit aorta; test: Vasodilatory effect: inhibition of calcium-induced contraction of K+-depolarized isolated rabbit aorta strips; type: cell-based, white New Zealand rabbits; conditions: Oryctolagus cuniculus
Experimental: as §1

| SMILES | IC50 [3] [nM] | Selectivity index (Atrium/Aorta) [1] | change in vivo at 20 mg/kg [2] [%] |
| --- | --- | --- | --- |
| CC1=C(C(=O)OCCN2C(=O)c3ccccc3S2(=O)=O)C(c2cccc([N+](=O)[O-])c2)C(C(=O)OC(C)C)=C(C)N1 (stereo not drawn) [Example 3, 2,6-Dimethyl-5-isopropoxycarbonyl-4-(3-nitrophenyl)-1,4-dihydropyridine-3-carboxylic acid-2-[N-(1,2-benzisothiazolyl-3(2H)one-1,1-dioxide)]-ethylester] | 0.27 | 137 | 19.7 |
| CC1=C(C(=O)OCCN2C(=O)c3ccccc3S2(=O)=O)C(c2cccc(Cl)c2Cl)C(C(=O)OC(C)C)=C(C)N1 (stereo not drawn) [Example 16, 4-(2,3-Dichlorophenyl)-2,6-dimethyl-5-isopropoxycarbonyl-1,4-dihydropyridine-3-carboxyic acid-2-[N-(1,2-benzisothiazolyl-3(2H)one-1,1-dioxide)]-ethylester] | 0.25 | 2744 | 7.45 |
| CCOC(=O)C1=C(C)NC(C)=C(C(=O)OCCN2C(=O)c3ccccc3S2(=O)=O)C1c1ccccc1C(F)(F)F (stereo not drawn) [Example 17, 2,6-Dimethyl-5-ethoxycarbonyl-4-(2-trifluoromethylphenyl)-1,4-dihydropyridine-3-carboxylic acid-2-[N-(1,2-benzisothiazolyl-3(2H)one-1,1-dioxide)]-ethylester] | 0.49 | 152 | 27.3 |
| CC1=C(C(=O)OCCN2C(=O)c3ccccc3S2(=O)=O)C(c2ccccc2C(F)(F)F)C(C(=O)OC(C)C)=C(C)N1 (stereo not drawn) [Example 18, 2,6-Dimethyl-5-isopropoxycarbonyl-4-(2-trifluoromethylphenyl)-1,4-dihydropyridine-3-carboxylic acid-2-[N-(1,2-benzisothiazolyl-3(2H)one-1,1-dioxide)]-ethylester] | 0.98 | 103 | 37.1 |
| CC1=C(C(=O)OCCCN2C(=O)c3ccccc3S2(=O)=O)C(c2cccc([N+](=O)[O-])c2)C(C(=O)OC(C)C)=C(C)N1 (stereo not drawn) [Example 25, 2,6-Dimethyl-5-isopropoxycarbonyl-4-(3-nitrophenyl)-1,4-dihydropyridine-3-carboxylic acid-3-[N-(1,2-benzisothiazolyl-3(2H)one-1,1-dioxide)]-propylester] | 1.02 | 205 | -1.01 |
| COC(=O)C1=C(C)NC(C)=C(C(=O)OCCCN2C(=O)c3ccccc3S2(=O)=O)C1c1cccc(Cl)c1Cl (stereo not drawn) [Example 29, 4-(2,3-Dichlorophenyl)-2,6-dimethyl-5-methoxycarbonyl-1,4-dihydropyridine-3-carboxylic acid-3-[N-(1,2-benzisothiazolyl-3(2H)one-1,1-dioxide)]-propylester] | 0.76 | 686 | 35 |
| COC(=O)C1=C(C)NC(C)=C(C(=O)OCCCN2C(=O)c3ccccc3S2(=O)=O)C1c1ccccc1Cl (stereo not drawn) [Example 34, 4-(2-Chlorophenyl)-2,6-dimethyl-5-methoxycarbonyl-1,4-dihydropyridine-3-carboxylic acid-3-[N-(1,2-benzisothiazolyl-3(2H)one-1,1-dioxide)]-propylester] | 1.82 | 77 | 11.1 |
| COC(=O)C1=C(C)NC(C)=C(C(=O)OCCCN2C(=O)c3ccccc3S2(=O)=O)C1c1ccccc1[N+](=O)[O-] (stereo not drawn) [Example 37, 2,6-Dimethyl-5-methoxycarbonyl-4-(2-nitrophenyl)-1,4-dihydropyridine-3-carboxylic acid-3-[N-(1,2-benzisothiazolyl-3(2H)one-1,1-dioxide)]-propylester] | 1.5 | 80 | 6.83 |
| CC1=C(C(=O)OCCCN2C(=O)c3ccccc3S2(=O)=O)C(c2ccccc2[N+](=O)[O-])C(C(=O)OC(C)C)=C(C)N1 (stereo not drawn) [Example 39, 2,6-Dimethyl-5-isopropoxycarbonyl-4-(2-nitrophenyl)-1,4-dihydropyridine-3-carboxylic acid-3-[N-(1,2-benzisothiazolyl-3(2H)one-1,1-dioxide)]-propylester] | 1.22 | 15 | 3.61 |
| CC1=C(C(=O)OCCN2C(=O)c3ccccc3S2(=O)=O)C(c2ccccc2[N+](=O)[O-])C(C(=O)OC(C)(C)C)=C(C)N1 (stereo not drawn) [Example 54, 5-Tert.-butoxycarbonyl-2,6-dimethyl-4-(2-nitrophenyl)-1,4-dihydropyridine-3-carboxylic acid-2-[N-(1,2-benzisothiazolyl-3(2H)one-1,1-dioxide)]-ethylester] | 0.7 | 41 | 23.4 |

Further lines, with some results ahead:

| IC50 [3] [nM] | SMILES | Selectivity index (Atrium/Aorta) [1] | change in vivo at 20 mg/kg [2] [%] |
| --- | --- | --- | --- |
| 1.77 | CCOC(=O)C1=C(C)NC(C)=C(C(=O)OCCCN2C(=O)c3ccccc3S2(=O)=O)C1c1cccc(Cl)c1Cl (stereo not drawn) [Example 40, 4-(2,3-Dichlorophenyl)-2,6-dimethyl-5-ethoxycarbonyl-1,4-dihydropyridine-3-carboxylic acid-3-[N-(1,2-benzisothiazolyl-3(2H)one-1,1-dioxide)]-propylester] | 200 | 35.5 |
| 2.08 | CC1=C(C(=O)OCCCN2C(=O)c3ccccc3S2(=O)=O)C(c2cccc(Cl)c2Cl)C(C(=O)OC(C)C)=C(C)N1 (stereo not drawn) [Example 42, 4-(2,3-Dichlorophenyl)-2,6-dimethyl-5-isopropoxycarbonyl-1,4-dihydropyridine-3-carboxylic acid-3-[N-(1,2-benzisothiazolyl-3(2H)one-1,1-dioxide)]-propylester] | 75 | 10.5 |
| 0.76 | CCOC(=O)C1=C(C)NC(C)=C(C(=O)OCCCN2C(=O)c3ccccc3S2(=O)=O)C1c1ccccc1C(F)(F)F (stereo not drawn) [Example 43, 2,6-Dimethyl-5-ethoxycarbonyl-4-(2-trifluoromethylphenyl)-1,4-dihydropyridine-3-carboxylic acid-3-[N-(1,2-benzisothiazolyl-3(2H)one-1,1-dioxide)]-propylester] | 163 | 18.6 |
| 1.38 | COCCOC(=O)C1=C(C)NC(C)=C(C(=O)OCCCN2C(=O)c3ccccc3S2(=O)=O)C1c1ccccc1C(F)(F)F (stereo not drawn) [Example 45, 2,6-Dimethyl-5-(2-methoxyethoxycarbonyl)-4-(2-trifluoromethylphenyl)-1,4-dihydropyridine-3-carboxylic acid-3-[N-(1,2-benzisothiazolyl-3(2H)one-1,1-dioxide)]-propylester] | 16 | 11 |
| 1.6 | CC1=C(C(=O)OCCN2C(=O)c3ccccc3S2(=O)=O)C(c2cccc([N+](=O)[O-])c2)C(C(=O)OC(C)(C)C)=C(C)N1 (stereo not drawn) [Example 51] | 72 | 24.6 |
| 1.3 | CC1=C(C(=O)OCCCN2C(=O)c3ccccc3S2(=O)=O)C(c2ccccc2Cl)C(C(=O)OC(C)C)=C(C)N1 (stereo not drawn) [Example 52, 4-(2-Chlorophenyl)-2,6-dimethyl-5-isopropoxycarbonyl-1,4-dihydropyridine-3-carboxylic acid-3-[N-(1,2-benzisothiazolyl-3(2H)one-1,1-dioxide)]-propylester] | 37 | 19.4 |
